According to patent US9765105B2, “Macrolide compound” (Pulike Biological Engineering, Inc., priority 2013, dated 2017):

What was measured:
[1] = tested on: Staphylococcus aureus CVCC26003; experiment: in vitro susceptibility, MIC by mini broth dilution; assay type: cell-based; conditions: strain CVCC26003
In short: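 MICs were determined by mini broth dilution under NCCLS standards in CAMHB, using revived S. aureus CVCC26003 subcultured 20 h at 35° C. Compounds were two-fold serially diluted in DMSO across 11 wells, with duplicate rows. Bacterial suspension was diluted 1:200 in medium before inoculation.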

[2] = acute toxicity test, single gastric perfusion; assay type: in vivo, Balb/c mice; conditions: 2000 mg/kg once by gastric perfusion, 85 mg/ml suspension; deaths after 6 h
Description: The marked parts of mice in the Syzx-24 group were respectively left hinder limbs (female), necks (female), right hinder limbs (male), and necks (male). The mice in the solvent control group were not marked.

[3] = tested on: Haemophilus parasuis; experiment: in vitro susceptibility, MIC by mini broth dilution; assay type: cell-based
In short: (§1)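 MICs determined by mini broth dilution following NCCLS standards, using two-fold serial dilutions of compound in DMSO across 11 gradients, in duplicate rows. Strains were revived and subcultured at 35 °C for 20 h. Bacterial suspension was diluted 1:200 in liquid medium.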

[4] = tested on: Pasteurella multocida CVCC399; experiment: as above; assay type: cell-based; conditions: strain CVCC399
In short: as §1

[5] = tested on: Streptococcus equines CVCC556; experiment: as above; assay type: cell-based; conditions: strain CVCC556
In short: as §1

[6] = tested on: Actinobacillus pleuropneumoniae CVCC262; experiment: as above; assay type: cell-based; conditions: strain CVCC262
In short: as §1

[7] = orally intoxicated mice; reported; cited from earlier work
[8] = acute oral toxicity test, LD50 by improved karber method; conditions: per os, gavaged once, in 0.2% sodium carboxymethylcellulose; observed 7 days
[9] = tested on: Streptococcus pneumoniae CMCC 31203; experiment: in vivo antibacterial test, survival of infected mice; parameters: species or system BALB/c mice; conditions: observed until the seventh day
[10] = medicament control group, Tulathromycin 10 mg per kg after infection
[11] = mice infected i.p. with Streptococcus pneumoniae, 5 mg per kg subcutaneous for 3 consecutive days

CC[C@H]1OC(=O)[C@H](C)[C@@H](O[C@H]2C[C@@](C)(OC)[C@](O)(CN(C)C)[C@H](C)O2)[C@H](C)[C@@H](O[C@@H]2O[C@H](C)C[C@H](N(C)C)[C@H]2O)[C@](C)(O)C[C@@H](C)NC[C@H](C)[C@@H](O)[C@]1(C)O [Syzx-24]
MIC values, Staphylococcus aureus CVCC26003 [1]: 0.5 ug/mi | Death rate [2]: 0% | Number of dead animals/total number of animals [2]: 0/4 | MIC values, Haemophilus parasuis [3]: 0.5 ug/mi | MIC values, Pasteurella multocida CVCC399 [4]: 0.25 ug/mi | MIC values, Streptococcus equines CVCC556 [5]: 0.25 ug/mi | MIC values, Actinobacillus pleuropneumoniae CVCC262 [6]: 0.25 ug/mi

CCCNC[C@]1(O)[C@H](C)O[C@@H](O[C@H]2[C@H](C)[C@@H](O[C@@H]3O[C@H](C)C[C@H](N(C)C)[C@H]3O)[C@](C)(O)C[C@@H](C)CN[C@H](C)[C@@H](O)[C@](C)(O)[C@@H](CC)OC(=O)[C@@H]2C)C[C@@]1(C)OC [Tulathromycin, reference compound]
MIC values, Staphylococcus aureus CVCC26003 [1]: 0.25 ug/mi | minimum lethal dose [7]: higher than 2000 mg/kg·d-1 | LD50 [8]: 2379.2 mg/kg | Animal survival rate [9, 10]: 70% | Animal survival rate (surviving/total animals) [9, 10]: 7/10 | Death rate [2]: 75% | Number of dead animals/total number of animals [2]: 3/4 (2 female and 1 male) | MIC values, Haemophilus parasuis [3]: 0.25 ug/mi | MIC values, Pasteurella multocida CVCC399 [4]: 0.25 ug/mi | MIC values, Streptococcus equines CVCC556 [5]: 0.25 ug/mi | MIC values, Actinobacillus pleuropneumoniae CVCC262 [6]: 0.25 ug/mi

CCCNC[C@]1(O)[C@H](C)O[C@@H](O[C@H]2[C@H](C)[C@@H](O[C@@H]3O[C@H](C)C[C@H](N(C)C)[C@H]3O)[C@](C)(O)C[C@@H](C)N(CCC)C[C@H](C)[C@@H](O)[C@](C)(O)[C@@H](CC)OC(=O)[C@@H]2C)C[C@@]1(C)OC [syzx-101, (2R,3S,4R,5S,8R,10R,11R,12S,13S,14R)-13-[(2,6-dideoxy-3-C-methyl-3-O-methyl-4-C-[(n-propylamino)-methyl]-α-L-ribopyranosyl)oxy]-2-ethyl-3,4,10-trihydroxy-3,5,8,10,12,14-hexamethyl-7-propyl-11-[[3,4,6-trideoxy-3-(dimethylamino)-β-D-xylo-hexopyranosy]oxy]-1-oxa-7-azacyclopentadecan-15-one]
MIC values, Staphylococcus aureus CVCC26003 [1]: 0.125 ug/mi | LD50 [8]: 3760.6 mg/kg | Animal survival rate [9, 11]: 90% | Animal survival rate (surviving/total animals) [9, 11]: 9/10 | MIC values, Haemophilus parasuis [3]: 0.125 ug/mi | MIC values, Pasteurella multocida CVCC399 [4]: 0.125 ug/mi | MIC values, Streptococcus equines CVCC556 [5]: 0.125 ug/mi | MIC values, Actinobacillus pleuropneumoniae CVCC262 [6]: 0.125 ug/mi
